Data: patent US5424328A, “Phenyl-imidazolidinone derivatives” (Farmitalia Carlo Erba S.r.l., priority 1992, dated 1995)

Columns and labels:
[1] = target: T1, 5HT3 receptor (Rattus norvegicus, UniProt P35563); assay: Inhibition of the von Bezold-Jarisch chemoreflex evoked by 5-HT in the anesthetized rat (in vivo 5HT3 antagonist activity); details: 5-HT 20 ug/kg i.v.; for % inhibition of the Bezold-Jarisch reflex: mean ± S.E.M., 6 animals, * p < 0.01 vs controls; for ED50: iv, read-out: ED50 (limits)
T1 construct: in the anesthetized rat; from tissue; host or cells: whole anesthetized rat (in vivo); endogenous receptor
T1 sequence (P35563 24-483): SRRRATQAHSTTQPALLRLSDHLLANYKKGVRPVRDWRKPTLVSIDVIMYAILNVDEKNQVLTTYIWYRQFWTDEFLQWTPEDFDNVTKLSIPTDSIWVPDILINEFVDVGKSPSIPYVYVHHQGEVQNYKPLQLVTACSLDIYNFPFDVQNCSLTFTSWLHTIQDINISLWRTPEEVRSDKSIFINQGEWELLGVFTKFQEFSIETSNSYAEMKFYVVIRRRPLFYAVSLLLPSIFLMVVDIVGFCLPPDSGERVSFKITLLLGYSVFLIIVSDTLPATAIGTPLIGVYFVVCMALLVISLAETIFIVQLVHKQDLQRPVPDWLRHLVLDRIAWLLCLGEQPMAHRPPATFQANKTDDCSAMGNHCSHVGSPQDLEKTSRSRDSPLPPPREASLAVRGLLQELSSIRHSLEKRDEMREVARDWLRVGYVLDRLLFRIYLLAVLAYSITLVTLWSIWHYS
Protocol: Pharmacol. 326, 36-44 (1984).
The following Table I reports the in vivo 5HT3 antagonist activity data obtained in this test for a representative group of compounds of the invention.
Inhibition of the Bezold-Jarisch reflex elicited by 5-HT
(20 ug/kg i.v.) by i.v. FCE-compounds in the anesthetized
Values are mean ± S.E.M. from 6 animals.
*p < 0.01 vs controls (Dunnett's test).

[2] = target: T2, serotonin 5-HT3 receptors (Rattus norvegicus, UniProt P35563); assay: Affinity for serotonin 5-HT3 receptors in rat entorhinal cortex, radioligand 3H-BRL 43694 binding
T2 construct: in rat entorhinal cortex; from tissue; host or cells: rat entorhinal cortex
T2 sequence (P35563 24-483): T1 sequence (P35563 24-483)
Protocol: The affinity for serotonin 5-HT3 receptors was assessed for instance in rat entorhinal cortex using a selective radioligand 3H-BRL 43694 as described by Nelson and Thomas (1989).
NELSON D. R. and THOMAS D. R., [3H]-BRL 43694 (Granisetron), a specific ligand for 5-HT3 binding sites in rat brain cortical membranes, Biochem. Pharmac., 38, 1693-1695, 1989. The affinity data for a representative group of compounds of the invention are set out in following Table II.

% inhibition of the Bezold-Jarisch reflex ([1]; dose 10 μg/kg i.v.) | % inhibition of the Bezold-Jarisch reflex ([1]; dose 30 μg/kg i.v.) | % inhibition of the Bezold-Jarisch reflex ([1]; dose 100 μg/kg i.v.) | ED50 [1] | IC50 [2] | % inhibition of the Bezold-Jarisch reflex ([1]; dose 1 μg/kg i.v.) | % inhibition of the Bezold-Jarisch reflex ([1]; dose 3 μg/kg i.v.) | % inhibition of the Bezold-Jarisch reflex ([1]; dose 0.5 μg/kg i.v.) | % inhibition of the Bezold-Jarisch reflex ([1]; dose 2 μg/kg i.v.) | % inhibition of the Bezold-Jarisch reflex ([1]; dose 8 μg/kg i.v.) | Structure (SMILES)
14.3 ± 9.2% | 44.5 ± 7.3% | 87.7 ± 7.0% | 32.2 µg/kg | 11 nM | – | – | – | – | – | Cc1[nH]cnc1CN1CCN(c2cccc(C#N)c2)C1=O [FCE 28276, 1-(5-methyl-1H-imidazol-4-yl)methyl-3-(3-cyanophenyl)-imidazolidin-2-one]
– | – | 56.1 ± 10.3% | – | 44 nM | – | – | – | – | – | O=C1N(Cc2c[nH]cn2)CCN1c1ccccc1 [FCE 28307, 1-(1H-imidazol-4-yl)methyl-3-phenyl-imidazolidin-2-one]
89.7 ± 1.8% | – | – | 5.26 µg/kg | 2.1 nM | 7.0 ± 6.0% | 37.8 ± 5.8% | – | – | – | Cc1[nH]cnc1CN1CCN(c2cccc(Cl)c2)C1=O [FCE 27733, 1-(5-methyl-1H-imidazol-4-yl)methyl-3-(3-chlorophenyl)-imidazolidin-2-one]
– | – | – | 2.2 µg/kg | 0.42 nM | 18.2 ± 2.4% | – | 1.5 ± 4.8% | 55.5 ± 7.1% | 88.7 ± 1.8% | Cc1[nH]cnc1CN1CCN(c2cc(Cl)cc(Cl)c2)C1=O [FCE 28232, 1-(5-methyl-1H-imidazol-4-yl)methyl-3-(3,5-dichlorophenyl)-imidazolidin-2-one]
64.2 ± 5.0% | 84.4 ± 4.2% | – | 6.5 µg/kg | 2.7 nM | – | 30.0 ± 5.9% | – | – | – | Cc1[nH]cnc1CN1CCN(c2cccc(Br)c2)C1=O [FCE 28159, 1-(5-methyl-1H-imidazol-4-yl)methyl-3-(3-bromophenyl)-imidazolidin-2-one]
79.4 ± 4.1% | – | – | 3.9 µg/kg | 14 nM | 14.7 ± 3.8% | 37.4 ± 6.5% | – | – | – | Cc1[nH]cnc1CN1CCN(c2ccccc2)C1=O [FCE 28277, 1-(5-methyl-1H-imidazol-4-yl)methyl-3-phenyl-imidazolidin-2-one]
16.8 ± 8.1% | 54.7 ± 2.3% | 85.8 ± 1.2% | 28.6 µg/kg | 6.7 nM | – | – | – | – | – | CSc1cccc(N2CCN(Cc3nc[nH]c3C)C2=O)c1 [FCE 28278, 1-(5-methyl-1H-imidazol-4-yl)methyl-3-(3-methylthiophenyl)-imidazolidin-2-one]
– | – | 88.6 ± 2.4% | – | 1.8 nM | – | – | – | – | – | Cc1cc(C)cc(N2CCN(Cc3nc[nH]c3C)C2=O)c1 [FCE 28356, 1-(5-methyl-1H-imidazol-4-yl)methyl-3-(3,5-dimethylphenyl)-imidazolidin-2-one]
83.3 ± 3.5% | – | – | 3.1 µg/kg | 4 nM | 14.6 ± 7.3% | 51.1 ± 4.3% | – | – | – | Cc1cccc(N2CCN(Cc3nc[nH]c3C)C2=O)c1 [FCE 28355, 1-(5-methyl-1H-imidazol-4-yl)methyl-3-(3-methylphenyl)-imidazolidin-2-one]
